The test system of this experiment is Staphylococcus carnosus ATCC51365. Description: Yeast screening assay: radial diffusion assay of yeast supernatants. Format: cell-based. Set-up: key: An activity of 3 is better than Plectasin; An activity of 2 corresponds to the activity of Plectasin; 1 is worse than Plectasin. As to conditions: yeast supernatant, clearing zone in radial diffusion assay. The protocol:
A range of antimicrobial polypeptides, which are variants of SEQ ID NO: 1 (Plectasin), were tested for antimicrobial activity by expressing them in S. cerevisae and screening the supernatant of the yeast transformants for antimicrobial activity against Staphylococcus carnosus ATCC51365.
Radial Diffusion Assay was carried out as described in Methods in Molecular Biology, Vol. 78, Antibacterial peptide protocol, William M. Shafer, Human Press.
200-300 yeast transformant colonies were plated on 14 cm round plates containing 25 mL SC growth medium supplemented with 1.5% galactose, 0.5% glucose and 1.5% agarose. Plates were incubated for three hours at room temperature, overlaid with 25 mL of the same growth medium and allowed to grow for three days at 30° C. Then the plates were overlaid with 25 mL of LB growth medium containing 1.5% agarose and 10^5 cells of the indicator strain Staphylococcus carnosus and incubated at 30° C. overnight to allow growth of the bacterial cells. Next day, the plates were stained with 1.5 mM MTT to facilitate visualization of the clearing zones.
Yeast colonies creating clearing zones were transferred to microtiter plates containing 200 micro-L of SC growth medium supplemented with 2% glucose and ampicillin (100 mg/L). Such plates designated “master plates” were incubated for 2 days at 30° C. with shaking at 450 rpm to allow yeast growth.
10 micro-L SC growth medium from each well of the master plates were transferred to new microtiter plates containing 200 micro-L SC growth medium with 1.5% galactose and 0.5% glucose. These plates were called daughter plates and were incubated for 3 days at 30° C. under 450 rpm shaking to allow yeast growth and peptide synthesis.
Finally a Radial Diffusion Assay (RDA) was performed following the protocol described in Methods in Molecular Biology to analyse and quantify the antimicrobial activity of the yeast supernatants against S. carnosus.
Briefly, 30 mL of minimal underlay medium containing 1% agarose and 5×10^5 cfu/mL of S. carnosus was poured in an omnitray plate (Nunc, 242811). A Nunc TSP plate (#445497) was inserted immediately on the plate to allow a 96 well pattern formation. Once the media had solidified, the TSP plate was removed and 10 micro-L of yeast supernatant samples were applied on the holes. Plates were incubated 3 hours at 37° C. and overlaid with 15 mL of LB agar growth medium. Finally, plates were incubated overnight at 37° C. and coloured with 1.5 mM MTT to visualize the clearing zones.
Inspection and measurements of the clearing zones was performed on the plates. The corresponding yeast clones resulting in clearing zones of similar or increased size than the clones encoding for wild type plectasin were picked from the master plates and transferred to agar plates containing SC growth medium with 2% glucose and ampicillin (100 mg/L). Such plates were incubated for further 2 days at 30° C. to allow yeast growth. Subsequently, colony PCR was performed followed by sequence analysis to identify amino acid changes in the plectasin sequence.
An activity of 2 corresponds to the activity of Plectasin. An activity of 3 is better than Plectasin, and 1 is worse than Plectasin.

On to “GFGCNGPWDEDDMQCHNHCKSIKGYKGGYCHKGGFVCKCY [Mutation A31H]”, for which the “Activity (antimicrobial activity relative to the activity of plectasin)” value was 2.

For “GFGCNGPWDEDDMQCHNHCKSIKGYKGGYCIKGGFVCKCY [Mutation A31I]”, the “Activity (antimicrobial activity relative to the activity of plectasin)” value is given as 2.

For “GFGCNGPWDEDDMQCHNHCKSIKGYKGGYCKKGGFVCKCY [Mutation A31K]”, the “Activity (antimicrobial activity relative to the activity of plectasin)” value was 3.

As to “GFGCNGPWDEDDMQCHNHCKSIKGYKGGYCQKGGFVCKCY [Mutation A31Q]”, the “Activity (antimicrobial activity relative to the activity of plectasin)” value is reported as 3.

With “GFGCNGPWDEDDMQCHNHCKSIKGYKGGYCRKGGFVCKCY [Mutation A31R]”, the “Activity (antimicrobial activity relative to the activity of plectasin)” value is listed as 2.

As for “GFGCNGPWDEDDMQCHNHCKSIKGYKGGYCSKGGFVCKCY [Mutation A31S]”, the “Activity (antimicrobial activity relative to the activity of plectasin)” value worked out at 2.

With “GFGCNGPWDEDDMQCHNHCKSIKGYKGGYCTKGGFVCKCY [Mutation A31T]”, the “Activity (antimicrobial activity relative to the activity of plectasin)” value is listed as 3.

For “GFGCNGPWDEDDMQCHNHCKSIKGYKGGYCVKGGFVCKCY [Mutation A31V]”, the “Activity (antimicrobial activity relative to the activity of plectasin)” value is listed as 2.

Take “GFGCNGPWDEDDMQCHNHCKSIKGYKGGYCYKGGFVCKCY [Mutation A31Y]”: the “Activity (antimicrobial activity relative to the activity of plectasin)” value was 3.

For the sequence “GFGCNGPWDEDDMQCHNHCKSIKGYTGGYCAKGGFVCKCY [Mutation K26T]”, the “Activity (antimicrobial activity relative to the activity of plectasin)” value was 2.

Turning to “GFGCNGPWDEDDMQCHNHCKSIKHYKGGYCAKGGFVCKCY [Mutation G24H]”, the “Activity (antimicrobial activity relative to the activity of plectasin)” value turned out to be 3.

Take “GFGCNGPWDEDDMQCHNHCKSIKIYKGGYCAKGGFVCKCY [Mutation G24I]”: the “Activity (antimicrobial activity relative to the activity of plectasin)” value worked out at 2.

Take “GFGCNGPWDEDDMQCHNHCKSIKKYKGGYCAKGGFVCKCY [Mutation G24K]”: the “Activity (antimicrobial activity relative to the activity of plectasin)” value is reported as 3.

Take “GFGCNGPWDEDDMQCHNHCKSIKNYKGGYCAKGGFVCKCY [Mutation G24N]”: the “Activity (antimicrobial activity relative to the activity of plectasin)” value is recorded as 3.

For the sequence “GFGCNGPWDEDDMQCHNHCKSIKPYKGGYCAKGGFVCKCY [Mutation G24P]”, the “Activity (antimicrobial activity relative to the activity of plectasin)” value worked out at 2.

As for “GFGCNGPWDEDDMQCHNHCKSIKQYKGGYCAKGGFVCKCY [Mutation G24Q]”, the “Activity (antimicrobial activity relative to the activity of plectasin)” value was determined as 2.

Turning to “GFGCNGPWDEDDMQCHNHCKSIKSYKGGYCAKGGFVCKCY [Mutation G24S]”, the “Activity (antimicrobial activity relative to the activity of plectasin)” value was 2.

On to “GFGCNGPWDEDDMQCHNHCKSIKTYKGGYCAKGGFVCKCY [Mutation G24T]”, for which the “Activity (antimicrobial activity relative to the activity of plectasin)” value is recorded as 2.

Regarding “GFGCNGPWDEDDMQCHNHCKSIKYYKGGYCAKGGFVCKCY [Mutation G24Y]”, the “Activity (antimicrobial activity relative to the activity of plectasin)” value came to 2.

For the sequence “GFGCNGPWDEDDMQCHNHCKSLKGYKGGYCAKGGFVCKCY [Mutation I22L]”, the “Activity (antimicrobial activity relative to the activity of plectasin)” value came to 3.

Take “GFGCNGPWDEDDMQCHNHCKSMKGYKGGYCAKGGFVCKCY [Mutation I22M]”: the “Activity (antimicrobial activity relative to the activity of plectasin)” value was 2.

As for “GFGCNGPWDEDDMQCHNHCKSTKGYKGGYCAKGGFVCKCY [Mutation I22T]”, the “Activity (antimicrobial activity relative to the activity of plectasin)” value came out at 2.

Turning to “GFGCNGPWDEDDMQCHNHCKSVKGYKGGYCAKGGFVCKCY [Mutation I22V]”, the “Activity (antimicrobial activity relative to the activity of plectasin)” value was 3.

In the case of “GFGCNGPWDEDDMQCHNHCKSWKGYKGGYCAKGGFVCKCY [Mutation I22W]”, the “Activity (antimicrobial activity relative to the activity of plectasin)” value worked out at 2.

Take “GFGCNGPWDEDDMQCHNHCQSIKGYKGGYCAKGGFVCKCY [Mutation K20Q]”: the “Activity (antimicrobial activity relative to the activity of plectasin)” value stood at 2.

On to “GFGCNGPWDEDDMQCHNLCKSIKGYKGGYCAKGGFVCKCY [Mutation H18L]”, for which the “Activity (antimicrobial activity relative to the activity of plectasin)” value was 3.

Take “GFGCNGPWDEDDMQCHNQCKSIKGYKGGYCAKGGFVCKCY [Mutation H18Q]”: the “Activity (antimicrobial activity relative to the activity of plectasin)” value is listed as 2.

Regarding “GFGCNGPWDEDDMQCHNTCKSIKGYKGGYCAKGGFVCKCY [Mutation H18T]”, the “Activity (antimicrobial activity relative to the activity of plectasin)” value turned out to be 2.

As to “GFGCNGPWDEDDMQCHNVCKSIKGYKGGYCAKGGFVCKCY [Mutation H18V]”, the “Activity (antimicrobial activity relative to the activity of plectasin)” value is 2.

Take “GFGCNGPWDEDDMSCHNHCKSIKGYKGGYCAKGGFVCRCY [Q14S + K38R]”: the “Activity (antimicrobial activity relative to the activity of plectasin)” value is 2.

On to “GFGCNGPWDEDDMTCHNHCKSIKGYKGGYCAKGGFVCKCY [Mutation Q14T]”, for which the “Activity (antimicrobial activity relative to the activity of plectasin)” value was found to be 2.

For the sequence “GFGCNGPWDEDDMVCHNHCKSIKGYKGGYCAKGGFVCKCY [Mutation Q14V]”, the “Activity (antimicrobial activity relative to the activity of plectasin)” value is 2.

“GFGCNGPWDEDDMWCHNHCKSIKGYKGGYCAKGGFVCKCY [Mutation Q14W]”: the “Activity (antimicrobial activity relative to the activity of plectasin)” value worked out at 2.

On to “GFGCNGPWDEDDMYCHNHCKSIKGYKGGYCAKGGFVCKCY [Mutation Q14Y]”, for which the “Activity (antimicrobial activity relative to the activity of plectasin)” value was 3.

Take “GFGCNGPWDEDDRQCHNHCKSIKGYKGGFCAKGGFVCKCY [M13R + Y29F]”: the “Activity (antimicrobial activity relative to the activity of plectasin)” value is 2.

In the case of “GFGCNGPWDEDDVQCHNHCKSIKGYKGGYCAKGGFVCKCY [Mutation M13V]”, the “Activity (antimicrobial activity relative to the activity of plectasin)” value stood at 3.

Take “GFGCNGPWDEDDYQCHNHCKSIKGYKGGYCAKGGFVCKCY [Mutation M13Y]”: the “Activity (antimicrobial activity relative to the activity of plectasin)” value amounted to 2.

On to “GFGCNGPWDEDPMQCHNHCKSIKGYKGGYCAKGGFVCKCY [Mutation D12P]”, for which the “Activity (antimicrobial activity relative to the activity of plectasin)” value is 2.

As for “GFGCNGPWDEFDMQCHNHCKSIKGYKGGYCAKGGFVCKCY [Mutation D11F]”, the “Activity (antimicrobial activity relative to the activity of plectasin)” value is given as 3.

On to “GFGCNGPWDEGDMQCHNHCKSIKGYKGGYCAKGGFVCKCY [Mutation D11G]”, for which the “Activity (antimicrobial activity relative to the activity of plectasin)” value was found to be 3.

As for “GFGCNGPWDEGDMQCHSHCKSIKGYKGGYCAKGGFVCKCY [D11G + N17S]”, the “Activity (antimicrobial activity relative to the activity of plectasin)” value came to 3.

Turning to “GFGCNGPWDEHDMQCHNHCKSIKGYKGGYCAKGGFVCKCY [Mutation D11H]”, the “Activity (antimicrobial activity relative to the activity of plectasin)” value amounted to 3.

For “GFGCNGPWDEIDMQCHNHCKSIKGYKGGYCAKGGFVCKCY [Mutation D11I]”, the “Activity (antimicrobial activity relative to the activity of plectasin)” value is 3.

Consider “GFGCNGPWDEKDMQCHNHCKSIKGYKGGYCAKGGFVCKCY [Mutation D11K]”, for which the “Activity (antimicrobial activity relative to the activity of plectasin)” value is listed as 3.

For “GFGCNGPWDELDIQCHNHCKSIKGYKGGYCAKGGFVCKCY [D11L + M13I]”, the “Activity (antimicrobial activity relative to the activity of plectasin)” value is recorded as 2.

In the case of “GFGCNGPWDELDMQCHNHCKSIKGYKGGYCAKGGFVCKCY [Mutation D11L]”, the “Activity (antimicrobial activity relative to the activity of plectasin)” value amounted to 3.

For the sequence “GFGCNGPWDEMDMQCHNHCKSIKGYKGGYCAKGGFVCKCY [Mutation D11M]”, the “Activity (antimicrobial activity relative to the activity of plectasin)” value stood at 3.

Turning to “GFGCNGPWDENDMQCHNHCKSIKGYKGGYCAKGGFICKCY [D11N + V36I]”, the “Activity (antimicrobial activity relative to the activity of plectasin)” value is recorded as 3.

Take “GFGCNGPWDEPDMQCHNHCKSIKGYKGGYCAKGGFVCKCY [Mutation D11P]”: the “Activity (antimicrobial activity relative to the activity of plectasin)” value is 3.

As to “GFGCNGPWDERDIQCHNHCKSIKGYKGGYCAKGGFVCKCY [D11R + M13I]”, the “Activity (antimicrobial activity relative to the activity of plectasin)” value was determined as 3.

“GFGCNGPWDERDMQCHNHCKSIKGYKGGYCAKGGFVCKCY [Mutation D11R]”: the “Activity (antimicrobial activity relative to the activity of plectasin)” value stood at 3.

With “GFGCNGPWDESDMQCHNHCKSIKGYKGGYCAKGGFVCKCY [Mutation D11S]”, the “Activity (antimicrobial activity relative to the activity of plectasin)” value came to 3.

In the case of “GFGCNGPWDETDMQCHNHCKSIKGYKGGYCAKGGFVCKCY [Mutation D11T]”, the “Activity (antimicrobial activity relative to the activity of plectasin)” value was determined as 3.

Consider “GFGCNGPWDEVDMQCHNHCKSIKGYKGGYCAKGGFVCKCY [Mutation D11V]”, for which the “Activity (antimicrobial activity relative to the activity of plectasin)” value is recorded as 3.

Regarding “GFGCNGPWDEWDMQCHNHCKSIKGYKGGYCAKGGFVCKCY [Mutation D11W]”, the “Activity (antimicrobial activity relative to the activity of plectasin)” value is 3.
